Test results reported in EP4653448A1, “COMPOUND FOR RNA CAPPING AND USE THEREOF” (Guangzhou Henovcom Bioscience Co. Ltd., priority 2023, dated 2024).

Legend:
T7 RNA Polymerase = T7 RNA Polymerase (Escherichia phage T7, UniProt P00573); assay: Detection of the efficiency of mRNA capping synthesis (in vitro transcription, product yield); assay type: biochemical; conditions: 20 µL mRNA synthesis reaction system
Procedure: • 1) The plasmids were linearized and the DNA templates were purified. • 2) The mRNA was synthesized by in vitro transcription, using the capping structure prepared in the present disclosure, positive control CleanCap®AG (3'OMe) (Trilink, N-7413), negative control (uncapped mRNA) and blank control (DNase/RNase-Free water), respectively. Reaction system
The reaction was carried out at 37°C for 2 to 3 h. TURBO DNase digestion was carried out for 15 min. The mRNA was precipitated by LiCl for 30 min or more or overnight, and the mRNA precipitate was washed with 75% ethanol, dried briefly to evaporate the ethanol, and the mRNA was redissolved with RNase-Free water.
In the reaction system listed in Table 1, since the solubility of different test compounds varies in different solutions, adjustments can be made as needed. For ease of operation, the commonly used concentrations are 10 mM and 100 mM. […] If the initial concentration of the test compound is 10 mM, the dosage is 8 µL. Regardless of the initial concentration, the dosages of different test compounds were the same, and the final concentrations were also the same.
For example, when testing compounds S17 and S19, their initial concentration was 10 mM, and the addition volume was 8 µL. When testing compounds 5 and 6, their initial concentration was 100 mM, and the addition volume was 0.8 µL.
The assay was performed according to the method described in Example 20.

HEK293T cells = assay: Expression efficiency of capped luciferase mRNAs in HEK293T cells; assay type: cell-based; conditions: 6 h after transfection of capped luciferase mRNA
Procedure: • 1) HNE293T cells were cultured in DMEM medium containing 10% FBS and penicillin/streptomycin at 37°C and 5% CO2. • 2) The cultured HEK293T cells were spread in a 96-well plate with 1.25 × 10^4 cells per well. • 3) After the cells completely adhered to the wall, 0.5 µg of a mixture of mRNA sample and Polyplus jet[…] was added to each well of cells, and cultured at 37°C and 5% CO2 for 6 h. • 4) The growth medium was removed from the cells to be tested and the cells were rinsed with PBS. After centrifugation to remove PBS, 50 µL of 1x lysis buffer was added thereto, and cells and all liquid were transferred to a microcentrifuge tube, and then centrifuged at 12000 x g at 4°C for 2 min. • 5) The supernatant was transferred to a new tube. Fluorescence readings were detected using the ONE-Glo Luciferase Assay System Kit.
All test compounds, N-7413, negative control and blank control were tested under the same conditions, and some experimental results in the test results are shown in Table 3. Table 3. Relative fluorescence readings for capped mRNAs
The assay was performed according to the method described in Example 21. All test compounds, N-7413, negative control and blank control were tested under the same conditions, and some experimental results in the test results are shown in Table 5. Table 5 Relative fluorescence readings for capped mRNAs

[1] = molecular target: streptavidin-coated magnetic beads (Streptomyces avidinii, UniProt P22629); assay: Biotin affinity assay (capture of capped mRNA on streptavidin beads and elution); assay type: binding; conditions: capped mRNA bound to streptavidin beads, eluted at 80°C
Sequence of streptavidin-coated magnetic beads (P22629 25-183): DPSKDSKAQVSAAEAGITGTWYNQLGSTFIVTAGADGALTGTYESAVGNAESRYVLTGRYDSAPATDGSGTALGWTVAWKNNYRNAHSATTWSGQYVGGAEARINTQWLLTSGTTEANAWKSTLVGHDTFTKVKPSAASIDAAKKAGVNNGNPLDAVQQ
Procedure: • 1) S1-30nt-mRNA (mRNA capped with compound S1, with a length of 30 nt) was prepared and purified by LiCl; • 2) 500 µL of streptavidin-coated magnetic beads (2 mg) were taken, and the test tube was placed on a magnetic stand to collect the magnetic beads. The supernatant was removed and discarded, and the magnetic beads were washed; • 3) The magnetic beads were resuspended in 600 µL of TES buffer, and 5.5 µg of S1-30nt-mRNA from 1) was added to the magnetic bead resuspension and mixed well; the mixture was incubated at room temperature for one hour on a shaker or vortex mixer; • 4) The sample was placed on the magnetic stand for 5 min, and after the solution became clear, the supernatant was removed; • 5) While keeping the sample on the magnetic stand, the magnetic beads were rinsed three times with TES buffer; • 6) While keeping the sample on the magnetic stand, the magnetic beads were rinsed three times with distilled water; • 7) The deionized water was removed from the beads, and 60 µL of elution buffer heated to 80°C was added and mixed well. The mixture was heated to 80°C for 3 min in a constant-temperature metal bath, then placed on the magnetic stand for 3 min. The supernatant was aspirated as the elution product. • 8) Experimental results

[2] = test compound 4 mM, 37°C 2 to 3 h (Table 2)
[3] = 0.5 µg per well, reading of N-7413 = 1 (Table 3)
[4] = reading of N-7413 = 1 (Table 5)

Sequence of T7 RNA Polymerase (P00573 whole entry): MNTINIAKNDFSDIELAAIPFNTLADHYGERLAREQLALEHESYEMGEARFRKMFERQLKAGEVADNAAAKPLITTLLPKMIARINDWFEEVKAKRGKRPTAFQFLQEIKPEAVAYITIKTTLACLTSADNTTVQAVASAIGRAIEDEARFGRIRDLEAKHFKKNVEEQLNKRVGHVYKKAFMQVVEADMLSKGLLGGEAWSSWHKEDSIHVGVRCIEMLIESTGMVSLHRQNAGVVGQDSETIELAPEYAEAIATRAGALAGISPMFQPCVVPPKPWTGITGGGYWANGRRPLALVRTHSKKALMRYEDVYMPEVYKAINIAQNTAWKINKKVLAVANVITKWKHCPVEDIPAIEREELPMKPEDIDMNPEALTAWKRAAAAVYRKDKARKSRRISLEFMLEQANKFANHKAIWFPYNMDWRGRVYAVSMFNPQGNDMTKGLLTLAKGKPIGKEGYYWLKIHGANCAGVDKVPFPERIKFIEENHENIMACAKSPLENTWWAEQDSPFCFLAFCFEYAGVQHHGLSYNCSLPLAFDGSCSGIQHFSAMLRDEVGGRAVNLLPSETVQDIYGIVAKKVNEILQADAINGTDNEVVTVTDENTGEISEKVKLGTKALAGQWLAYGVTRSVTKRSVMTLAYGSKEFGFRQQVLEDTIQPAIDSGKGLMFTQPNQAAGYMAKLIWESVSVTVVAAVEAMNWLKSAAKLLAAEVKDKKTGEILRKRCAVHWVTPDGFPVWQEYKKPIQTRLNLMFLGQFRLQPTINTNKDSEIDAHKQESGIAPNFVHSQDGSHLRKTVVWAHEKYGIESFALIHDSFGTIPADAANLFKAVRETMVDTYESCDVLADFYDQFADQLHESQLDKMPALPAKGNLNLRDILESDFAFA

Row | Compound | Final product mass (T7 RNA Polymerase; [2]) | Relative fluorescence reading (HEK293T cells; [3]) | recovery rate [1] | Final product mass (T7 RNA Polymerase; method of Example 20 (Table 4)) | Relative fluorescence reading (HEK293T cells; [4])
1 | CO[C@@H]1[C@H](OP(=O)([O-])OC[C@H]2O[C@@H](n3cnc4c(=O)[nH]c(N)nc43)[C@H](O)[C@@H]2O)[C@@H](COP(=O)(O)OP(=O)(O)OP(=O)(O)OC[C@H]2O[C@@H](n3c[n+](C)c4c(=O)[nH]c(N)nc43)[C@H](O)[C@@H]2NC(=O)CCCC[C@@H]2SC[C@@H]3NC(=O)N[C@@H]32)O[C@H]1n1cnc2c(N)ncnc21 [Compound S169] | 131 µg | 1.35 | above 95% | – | –
2 | CO[C@@H]1[C@H](OP(=O)([O-])OC[C@H]2O[C@@H](n3cnc4c(=O)[nH]c(N)nc43)[C@H](O)[C@@H]2O)[C@@H](COP(=O)(O)OP(=O)(O)OP(=O)(O)OC[C@H]2O[C@@H](n3c[n+](C)c4c(=O)[nH]c(N)nc43)[C@H](O)[C@@H]2Cn2cc(CNC(=O)CCCC[C@@H]3SC[C@@H]4NC(=O)N[C@@H]43)nn2)O[C@H]1n1cnc2c(N)ncnc21 [Compound S41] | 126 µg | 1.81 | above 95% | – | –
3 | CO[C@@H]1[C@H](OP(=O)(O)OC[C@H]2O[C@@H](n3cnc4c(=O)[nH]c(N)nc43)[C@H](O)[C@@H]2O)[C@@H](COP(=O)(O)OP(=O)(O)OP(=O)([O-])OC[C@H]2O[C@@H](n3c[n+](C)c4c(=O)[nH]c(N)nc43)[C@H](O)[C@@H]2CNC(=O)CCCCCNC(=O)CCCC[C@@H]2SC[C@@H]3NC(=O)N[C@@H]32)O[C@H]1n1cnc2c(N)ncnc21 [Compound S3] | 137 µg | 2.56 | above 95% | – | –
4 | COCCOCCOCCOCCOCC(=O)NC[C@H]1[C@@H](O)[C@H](n2c[n+](C)c3c(=O)[nH]c(N)nc32)O[C@@H]1COP(=O)([O-])OP(=O)(O)OP(=O)(O)OC[C@H]1O[C@@H](n2cnc3c(N)ncnc32)[C@H](OC)[C@@H]1OP(=O)(O)OC[C@H]1O[C@@H](n2cnc3c(=O)[nH]c(N)nc32)[C@H](O)[C@@H]1O [Compound 6] | 117 µg | 1.90 | – | – | –
5 | COCC1(F)C(COP(=O)(O)OP(=O)(O)OP(=O)(O)OCC2OC(n3cnc4c(N)ncnc43)C(OC)C2OP(=O)([O-])OCC2OC(n3cnc4c(=O)[nH]c(N)nc43)C(O)C2O)OC(n2c[n+](Cc3ccccc3)c3c(=O)[nH]c(N)nc32)C1O (stereo not shown) [Compound D88] | – | – | – | 114 µg | 2.04
6 | CNc1nc2c(c(=O)[nH]1)[n+](C)cn2[C@@H]1O[C@H](COP(=O)(O)OP(=O)(O)OP(=O)(O)OC[C@H]2O[C@@H](n3cnc4c(N)ncnc43)[C@H](OC)[C@@H]2OP(=O)([O-])OC[C@H]2O[C@@H](n3cnc4c(=O)[nH]c(N)nc43)[C@H](O)[C@@H]2O)[C@@](F)(COC)[C@H]1O [Compound D87] | – | – | – | 98 µg | 1.55
7 | CNc1ncnc2c1ncn2C1OC(COP(=O)(O)OP(=O)(O)OP(=O)(O)OCC2OC(n3c[n+](C)c4c(=O)[nH]c(N)nc43)C(O)C2(C)F)C(OP(=O)([O-])OCC2OC(n3cnc4c(=O)[nH]c(N)nc43)C(O)C2O)C1OC (stereo not shown) [Compound D95] | – | – | – | 111 µg | 0.83
8 | CO[C@@H]1[C@H](OP(=O)([O-])OC[C@H]2O[C@@H](n3cnc4c(=O)[nH]c(N)nc43)[C@H](O)[C@@H]2O)[C@@H](COP(=O)(O)OP(=O)(O)OP(=O)(O)OC[C@H]2O[C@@H](n3c[n+](C)c4c(=O)[nH]c(N)nc43)[C@H](O)[C@@H]2CC(=O)NCCNC(=O)CCCC[C@@H]2SC[C@@H]3NC(=O)N[C@@H]32)O[C@H]1n1cnc2c(N)ncnc21 [Compound S170] | 96 µg | 1.47 | above 95% | – | –
9 | COCC1(F)C(COP(=O)(O)OP(=O)(O)OP(=O)(O)OCC2OC(n3cnc4c(N)ncnc43)C(OC)C2OP(=O)([O-])OCC2OC(n3cnc4c(=O)[nH]c(N)nc43)C(O)C2O)OC(n2c[n+](Cc3ccc(C)cc3)c3c(=O)[nH]c(N)nc32)C1O (stereo not shown) [Compound D93] | – | – | – | 105 µg | 1.95
